From PMC9623576, “Semisynthesis and Evaluation of Anti-Inflammatory Activity of the Cassane-Type Diterpenoid Taepeenin F and of Some Synthetic Intermediates” (Journal of Natural Products, 2022)
Where two headings read alike, the source gives them in different places.

What was measured:
NO release = conditions: read-out: IC50 of NO inhibitory effect; cited from earlier work
[1] = test system: RAW 264.7 monocyte/macrophage murine cells; test: MTT growth inhibition on RAW 264.7 cells; type: cell-based; conditions: Mus musculus, RAW264.7, RAW 264.7, MTT; for IC20: 20% growth inhibition; for IC80: 80% growth inhibition
Description: (§1) A stock solution was frozen and stored at […]. Before the experiments, this solution was diluted in cell-culture medium to the adequate concentrations for each experiment. […] For nitrite assay, subcytotoxic concentrations (3/4IC50, 1/2IC50, and 1/4IC50), were used to ensure that the NO inhibitory potential was not due to a possible cytotoxic effect. The concentrations of 3/4IC50, 1/2IC50, and 1/4IC50 were used for the cell-cycle analysis. All experiments were measured and compared with control (untreated cells after 24, 48, or 72 h of treatment.)
In all experiments, monolayer cells were grown to 80–90% confluence, in sterile cell culture flasks. All cell lines used were purchased from the cell bank of the University of Granada, Spain.
The cytotoxicity assay was performed by the MTT (3-(4,5-dimethylthiazol-2-yl)-2,5-diphenyltetrazolium bromide) method.[21] […] All tested compounds were prepared in fresh growth medium. After 24 h, an additional 100 μL of medium with the corresponding concentrations of products (only medium in the control wells) was added to the corresponding wells, at various final concentrations (0–100 μg/mL). […] After 1.5 h of incubation, formazan was resuspended in 100 μL of DMSO, and each concentration was tested in triplicate.
Cytotoxicity experimental data were fitted to a sigmoidal function (y = ymax/(x/a)^−b) by nonlinear regression. […] Similar analyses were performed to obtain the IC50 of NO production. All data shown here are representative of at least two independent experiments performed in triplicate. All quantitative data were summarized as the mean ± standard deviation (SD).

[2] = test system: HepG2 human hepatocarcinoma cells; test: MTT cancer cell proliferation assay, HepG2; type: cell-based; conditions: HepG2, 72 h
Description: (§2) The five newly synthesized diterpenoids were evaluated for their cytotoxic effects against three selected tumor cell lines, B16-F10 murine melanoma cells, HT29 human colon adenocarcinoma cells, and HepG2 human hepatocarcinoma cells at increasing concentrations (0–100 μg/mL). After 72 h of treatment, cell viability was determined by an MTT assay, where the tetrazolium dye was transformed into formazan in the mitochondria of viable cells, its absorbance measured at 570 nm and expressed as a percentage with respect to untreated control cells (S3 Figure.). The concentrations required for 20, 50, and for 80% growth inhibition (IC20, IC50, and IC80) were also determined for each compound (Table 2).
as §1
(§3) Human colorectal adenocarcinoma cell line HT29 (ECACC no. 9172201; ATCC no. HTB-38), human hepatocarcinome cell line HepG2 (ECACC no. 85011430), mouse melanoma cells B16-F10 (ATCC no. CRL-6475), and murine monocyte/macrophage-like RAW 264.7 cell line (ATCC no, TIB-71) were cultured in DMEM (Dulbecco’s modified Eagle’s medium) supplemented with 2 mM glutamine, 10% heat-inactivated FCS (fetal calf serum), 10 000 units/mL of penicillin and 10 mg/mL of streptomycin, (for all cancer cell lines), 50 μg/mL of gentamicin (only for RAW 264.7 cell line), and incubated at 37 °C, in an atmosphere of 5% CO2 and 95% humidity. The culture media were changed every 48 h, and the confluent cultures were separated with a trypsin solution (0.25% EDTA). In all experiments, monolayer cells were grown to 80–90% confluence, in sterile cell culture flasks. All cell lines used were purchased from the cell bank of the University of Granada, Spain.
(§4) The cytotoxicity assay was performed by the MTT (3-(4,5-dimethylthiazol-2-yl)-2,5-diphenyltetrazolium bromide) method.[21] To quantify the cytotoxicity of compounds, the fresh and suspended cells were seeded in 96-well plates to a volume of 100 μL at 6.0 × 10^3 cells/mL for HT29 and RAW 264.7 cell lines, at 5.0 × 10^3 cells/mL for B16-F10 cells and 15.0 × 10^3 for Hep G2. Then, cells were incubated to adhere over 24 h at 37 °C with 5% CO2. All tested compounds were prepared in fresh growth medium. After 24 h, an additional 100 μL of medium with the corresponding concentrations of products (only medium in the control wells) was added to the corresponding wells, at various final concentrations (0–100 μg/mL). Finally, after 72 h of incubation at 37 °C with 5% CO2, the medium with the compounds were removed and 100 μL of MTT solution (0.5 mg/mL) in 50% of PBS 50% of medium was added to each well. After 1.5 h of incubation, formazan was resuspended in 100 μL of DMSO, and each concentration was tested in triplicate. Relative cell viability, with respect to untreated control cells, was measured by absorbance at 570 nm on an ELISA plate reader (Tecan Sunrise MR20-301, TECAN, Austria).
(§5) Cytotoxicity experimental data were fitted to a sigmoidal function (y = ymax/(x/a)^−b) by nonlinear regression. […] These analyses were performed using SigmaPlot 12.5 software. Similar analyses were performed to obtain the IC50 of NO production. All data shown here are representative of at least two independent experiments performed in triplicate. All quantitative data were summarized as the mean ± standard deviation (SD).

[3] = test system: NO production in LPS-activated RAW 264.7 macrophage murine cells; test: Inhibition of NO (nitrite) release, Griess reaction; type: cell-based
Description: The concentrations of nitrites were determined by the Griess reaction.
as §1
Nitrites production was analyzed through the Griess reaction. This nitrite concentration was used as an indicator of NO production.[35] Briefly, RAW 264.7 cells were plated at 6 × 10^3 cells/well in 24-well cell culture plates and supplemented with 10 μg/mL of lipopolysaccharide (LPS). […] The supernatants were collected at 48 and 72 h, to determine their nitrite concentrations and/or stored at −80 °C for further use.
The Griess reaction was performed taking 150 μL of supernatant test samples or sodium nitrite standard (0–120 μM) and mixed with 25 μL of Griess reagent A (0.1% N,N-(1-naphthyl) ethylenediaminedihydrochloride) and 25 μL of Griess reagent B (1% sulfanilamide in 5% of phosphoric acid), in a 96-well plate. After 15 min of incubation at room temperature, the absorbance was measured at 540 nm in an ELISA plate reader (Tecan Sunrise MR20–301, TECAN, Austria). The absorbance was referred to a nitrite standard curve to determine the concentration of nitrite in the supernatant of each experimental sample. The percentage of NO production was determined, assigning 100% at the increase between negative control (untreated cells) and positive control (cells only treated with 10 μg/mL of LPS).

[4] = test system: B16-F10 murine melanoma cells; test: MTT cancer cell proliferation assay, B16-F10; type: cell-based; conditions: B16-F10, 72 h
Description: as §2, §1, §3, §4, §5

[5] = test system: HT29 human colon adenocarcinoma cells; test: MTT cancer cell proliferation assay, HT29; type: cell-based
Description: as §2, §1, §3, §4, §5

HepG-2 cancer cell line = test system: HepG-2 cancer cell line; design: method as in PMID 23806110; conditions: HepG-2 cancer cell line ref 10; cited from earlier work
MCF-7 cancer cell line = test system: MCF-7 cancer cell line; design: method as in PMID 23806110; conditions: MCF-7 cancer cell line ref 10; cited from earlier work
[6] = Homo sapiens, MTT, read-out: IC50
[7] = Homo sapiens, MTT, read-out: IC20
[8] = Mus musculus, MTT, read-out: IC50
[9] = Mus musculus, MTT, read-out: IC20
[10] = Homo sapiens, HT-29, HT29, 72 h, MTT
[11] = Homo sapiens, HT-29, HT29, 72 h, MTT, read-out: IC20

caesalmin A
IC50 (NO release): ~25.4 µM

COC(=O)[C@]1(C)CCC[C@]2(C)c3cc(O)c(CO)c(C)c3CC[C@@H]12 [Compound 22, (1R,4aS,10aR)-Methyl 6-hydroxy-7-(hydroxymethyl)-1,4a,8-trimethyl-1,2,3,4,4a,9,10,10a-octahydrophenanthrene-1-carboxylate]
IC50 [1]: 101.8 ± 0.52 µM | IC20 [1]: 92.1 ± 1.13 µM | IC80 [1]: 114.2 ± 0.17 µM | IC50 ([2]; MTT, read-out: IC50): 125 ± 2.36 µM | IC50 [2, 6]: > 85.6 µM | IC80 ([2]; Homo sapiens, MTT): 141 ± 6.51 µM | IC20 [2, 7]: 110.1 ± 0.84 µM | inhibition of NO release ([3]; 48 h, 1/2IC50 concentration): 70.94% | inhibition of NO release ([3]; 48 h, 3/4IC50 concentration): 86.96% | inhibition of NO release ([3]; 72 h, 3/4IC50 concentration): 96% | IC50 ([4]; MTT, read-out: IC50): 102 ± 4.36 µM | IC50 [4, 8]: > 85.6 µM | IC80 ([4]; Mus musculus, MTT): 122 ± 4.22 µM | IC20 [4, 9]: 85.5 ± 6.16 µM | melting point: 98 to 101 °C | IC50 ([5]; HT29, 72 h, MTT, read-out: IC50): 85.6 ± 4.99 µM | IC50 ([5]; Homo sapiens, HT-29, 72 h, HT29, 72 h, MTT, read-out: IC50): > 85.6 µM | IC80 [5, 10]: 114 ± 7.35 µM | IC20 [5, 11]: 67.5 ± 4.61 µM

COC(=O)[C@]1(C)CCC[C@]2(C)c3cc(O)c(C(C)C)c(C)c3CC[C@@H]12 [Compound 17, (1R,4aS,10aR)-Methyl 6-hydroxy-7-isopropyl-1,4a,8-trimethyl-1,2,3,4,4a,9,10,10a-octahydrophenanthrene-1-carboxylate]
IC50 [1]: 129 ± 7.06 µM | IC20 [1]: 27.8 ± 8.38 µM | IC80 [1]: 247 ± 6.3 µM | IC50 ([2]; MTT, read-out: IC50): 137 ± 13.9 µM | IC50 [2, 6]: > 85.6 µM | IC80 ([2]; Homo sapiens, MTT): 274 ± 41.2 µM | IC20 [2, 7]: 32.6 ± 3.41 µM | inhibition of NO release ([3]; 48 h, 1/2IC50 concentration): 86.5% | inhibition of NO release ([3]; 48 h, 3/4IC50 concentration): 89.70% | inhibition of NO release ([3]; 72 h, 3/4IC50 concentration): 99% | IC50 ([4]; MTT, read-out: IC50): 133 ± 8.17 µM | IC50 [4, 8]: > 85.6 µM | IC80 ([4]; Mus musculus, MTT): 259.3 ± 1.35 µM | IC20 [4, 9]: 33.3 ± 5.94 µM | IC80 [5, 10]: 311 ± 8.32 µM | IC20 [5, 11]: 122 ± 24.2 µM

caesalpin A [Compound 8]
IC50 (HepG-2 cancer cell line): 4.7 µM | IC50 (MCF-7 cancer cell line): 2.1 µM

COC(=O)[C@]1(C)CCC[C@]2(C)c3cc4c(c(C)c3CC[C@@H]12)CC(=O)O4 [Compound 6, (4R,4aR,11bS)-Methyl 4,7,11b-trimethyl-9-oxo-1,2,3,4,4a,5,6,8,9,11b-decahydrophenanthro[3,2-b]furan-4-carboxylate]
IC20 [1]: 111 ± 24 µM | IC80 [1]: 254.7 ± 1.48 µM | IC50 ([2]; MTT): > 100 µM | IC50 ([2]; MTT, listed as Taepeenin F (6)): 237 ± 9.69 µM | IC20 ([2]; Homo sapiens): 112 ± 22 µM | inhibition of NO release ([3]; 48 h, 1/2IC50 concentration): 77.80% | inhibition of NO release ([3]; 48 h, 3/4IC50 concentration): 88.33% | inhibition of NO release ([3]; 72 h, 3/4IC50 concentration): 98% | IC50 ([4]; MTT): > 100 µM | IC50 ([4]; MTT, listed as Taepeenin F (6)): 257 ± 24 µM | IC20 ([4]; Mus musculus): 234 ± 4.12 µM | IC50 ([5]; HT29, 72 h, MTT): > 100 µM | IC50 ([5]; HT29, 72 h, MTT, listed as Taepeenin F (6)): 391 ± 39.5 µM | IC20 ([5]; Homo sapiens, HT-29, 72 h): 124.2 ± 1.11 µM
